Test results as given in paper PMC8119466, “A screen of FDA-approved drugs identifies inhibitors of protein tyrosine phosphatase 4A3 (PTP4A3 or PRL-3)” (Scientific Reports, 2021).
Like-named read-outs stand apart in the source and are kept apart here.

Columns and labels:
HEK293T cells [1] = test: Scratch (migration) assay, HEK293T transfected with PRL-3 or empty vector; type: cell-based, human; conditions: compared to DMSO; for cellular migration in control cells: HEK293T empty vector, 24 h; for cellular migration in PRL-3 overexpressing cells: HEK293T transfected with PRL-3, 24 h
Description: (§1) pENTR-PRL-3 (previously described[51]) was cloned into pLKO-CMV-puro using LR clonase (Thermofisher, 11,791,019) according to manufacturer’s directions. pLKO-CMV empty vector (EV) and pLKO-CMV:PRL-3 were transfected into HEK293T using Lipofectamine 3000 (ThermoFisher, L3000015) according to manufacturer’s protocol. Transfected cells were selected with 1 µg/mL puromycin in complete media to establish the cell line, then were maintained under 0.5 µg/mL puromycin in complete media. For PRL-3 knockdown, pLKO.1-scrambled shRNA and pLKO.1-PRL-3 shRNA[51] plasmids were transfected into HCT116 cells using Lipofectamine 3000 (Thermo Fisher, Cat # L3000015) according to the manufacturer’s directions. Cells were selected for 48 h in 1 µg/mL puromycin before use in assays.
(§2) Cells were seeded into duplicate wells of a 48 well plates at a density of 2 × 10^5 cells per well for HEK293T or 4 × 10^5 for HCT116 and SW480. Cells were recovered overnight and were scratched using a p20 pipette tip the following day. Compounds were added at the concentrations indicated. Images were obtained immediately after the scratch and after a 24 h incubation with the drug on an Evos FL inverted microscope (ThermoFisher). The area within the scratch was calculated using ImageJ. The area migrated was measured as the difference in wound area at 0 h and 24 h and the percent change in migration was calculated by dividing the difference in wound area of treatment by the difference in wound area of the control.

HCT116 cells [2] = test: Scratch (migration) assay, HCT116; type: cell-based, human; conditions: 24 h, 100 µM Salirasib or 25 µM Candesartan
Description: as §1, §2

HEK293T cells [3] = test: Click-IT Edu cell proliferation assay, HEK293T; type: cell-based, human; conditions: 100 µM Salirasib or 25 µM Candesartan, 24 and 48 hr
Description: (§3) The cell proliferation assay was performed using the Click-IT Edu cell proliferation kit from (Thermo Fisher, Cat # C10419) according to the manufacturer’s protocol. Briefly, HEK293T, HCT116 and SW480 cells were plated in 6 well dishes at 4 × 10^5 cell seeding density and treated with DMSO, Candesartan and Salirasib at the indicated concentrations. Edu was added 2 h prior to collecting the cells at 24 h and 48 h time points and the assay was performed according to the instructions from the manual. Flow cytometry with AlexaFluor647 conjugated azide dye was used to determine the cellular proliferation and DAPI was used for the DNA content.

MKP5 = target: T1, MKP5 (Homo sapiens, UniProt Q9Y6W6); test: PhosphataseProfiler (Eurofins) selectivity panel; type: biochemical; conditions: MKP5, 25µM
T1 construct: purchased Eurofins PP260
Description: (§4) Inhibition selectivity for PRLs over a panel of other phosphatases was determined using PhosphataseProfiler (Eurofins, Cat # PP260).

PP1alpha = target: T2, PP1alpha (Homo sapiens, UniProt P62136); test: PhosphataseProfiler (Eurofins) selectivity panel; type: biochemical; conditions: 25µM
T2 construct: purchased Eurofins PP260
Description: as §4

PTP1B = target: T3, PTP1B (Homo sapiens, UniProt P18031); test: PhosphataseProfiler (Eurofins) selectivity panel; type: biochemical; conditions: 25µM
T3 construct: purchased Eurofins PP260
Description: as §4

recombinant PRL-1 = target: T4, recombinant PRL-1 (Homo sapiens, UniProt Q93096); test: In vitro phosphatase assay (DiFMUP hydrolysis), PRL-1; type: biochemical; conditions: for % Phosphatase Activity (compared to DMSO) PRL-1: FDA-approved drug screen; for IC50: DiFMUP at KM, read-out: Calculated IC50, PRL-1 phosphatase activity
T4 construct: 6xHis (N, cleaved yes); made in house; host or cells: E. coli One Shot BL21 Star
T4 sequence (Q93096 1-173): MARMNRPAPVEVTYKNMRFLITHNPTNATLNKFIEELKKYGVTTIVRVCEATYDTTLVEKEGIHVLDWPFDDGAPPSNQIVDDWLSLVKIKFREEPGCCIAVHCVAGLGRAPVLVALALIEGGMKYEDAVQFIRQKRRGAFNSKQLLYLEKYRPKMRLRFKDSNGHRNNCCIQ

recombinant PRL-2 = target: T5, recombinant PRL-2 (Homo sapiens, UniProt Q12974); test: In vitro phosphatase assay (DiFMUP hydrolysis), PRL-2; type: biochemical; conditions: for % Phosphatase Activity (compared to DMSO) PRL-2: FDA-approved drug screen;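 on all read-outs here: PRL-2 activity read as DiFMUP hydrolysis after 20 min at room temperature with drug, enzyme first pre-reduced at 4 °C for 20 min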
T5 construct: 6xHis (N, cleaved yes); made in house; host or cells: E. coli One Shot BL21 Star
T5 sequence (Q12974 1-167): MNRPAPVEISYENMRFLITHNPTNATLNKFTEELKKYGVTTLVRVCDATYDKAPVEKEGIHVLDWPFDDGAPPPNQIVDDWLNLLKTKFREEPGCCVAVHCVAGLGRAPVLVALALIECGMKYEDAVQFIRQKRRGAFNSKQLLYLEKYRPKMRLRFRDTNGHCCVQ

SHP1 = target: T6, SHP1 (Homo sapiens, UniProt P29350); test: PhosphataseProfiler (Eurofins) selectivity panel; type: biochemical; conditions: SHP1, 25µM
T6 construct: purchased Eurofins PP260
Description: as §4

VHR = target: T7, VHR (Homo sapiens, UniProt P51452); test: PhosphataseProfiler (Eurofins) selectivity panel; type: biochemical; conditions: 25µM
T7 construct: purchased Eurofins PP260
Description: as §4

TCPTP = target: T8, TCPTP (Homo sapiens, UniProt P17706); test: PhosphataseProfiler (Eurofins) selectivity panel; type: biochemical; conditions: 25µM
T8 construct: purchased Eurofins PP260
Description: as §4

ACP1 (LMPTP-A) = target: T9, ACP1 (LMPTP-A) (Homo sapiens, UniProt P24666); test: PhosphataseProfiler (Eurofins) selectivity panel; type: biochemical; conditions: 25µM
T9 construct: purchased Eurofins PP260
Description: Briefly, protein was diluted in reaction buffer and allowed to incubate at 4 °C for 20 min to allow for full reduction of the active site. DiFMUP, drug, and protein were added, and plates were incubated for 20 min at room temperature. Fluorescence intensities were measured on a Cytation 5 plate reader (Biotek) at an EX:360 nm and EM:460 nm. […] Inhibition selectivity for PRLs over a panel of other phosphatases was determined using PhosphataseProfiler (Eurofins, Cat # PP260).

HEK293T cells [4] = test: MTT viability assay; type: cell-based, human; conditions: 16 h
Description: Cells were seeded into duplicate wells of a 96 well plate at a density of 2 × 10^4 cells per well and allowed to recover for 24 h. Cells were then treated with drug or DMSO at the indicated concentrations for 16 h. Following drug treatment, 10 μL of 5 mg/ml MTT (Sigma, M5655) was added to each well and cells were incubated for 4 h. Finally, media were removed, and the dye was solubilized in 100 μL of 0.1 M HCl in isopropanol. Absorbance was measured at 570 nm and 690 nm with final absorbance measurements as 570–690 nm.

phospho-ERK = test: Western blot of phospho-ERK in HCT116 cells; type: cell-based, human; conditions: HCT116, 24 hr; 100 µM Salirasib, 25 µM Candesartan
Description: Cells were lysed using Qproteome lysis buffer (Qiagen, Cat # 37901), then spun at 14,000 rpm for 10 min at 4 °C. Protein concentration in the supernatant was quantified using BCA assay (Thermo Scientific, Cat # 23227). 30 μg of protein was loaded into each lane of a TGX-stain-free pre-cast 4–20% SDS gel (Biorad, Cat # 4568094), total protein was quantified upon stain-free gel imaging, and protein was transferred onto PVDF membrane using the Trans-Blot Turbo Transfer System (BioRad, Cat # 1704150). Membranes were blocked with 5% milk in 1% TBST for 1 h, and a 1:1000 dilution of Anti-PRL-3 antibody (R&D Biosystems, Cat # MAB3219), 1:5000 phospho-ERK (Cell Signaling, Cat # 19101) or 1:5000 total ERK (Cell Signaling, Cat # 137F5) was added overnight. Following three washes in TBST, secondary HRP-conjugated antibody (GE, Cat # NA9340V) were added at a 1:5000 dilution for 1 h and membranes imaged using Clarity Western ECL Substrate. (BioRad, Cat # 1705061).

HCT116 cells [5] = test: Click-IT Edu cell proliferation assay, HCT116; type: cell-based, human; conditions: HCT-116; 100 µM Salirasib or 25 µM Candesartan; 24 and 48 hr
Description: as §3

SHP2 = target: T10, SHP2 (Homo sapiens, UniProt Q06124); test: PhosphataseProfiler (Eurofins) selectivity panel; type: biochemical; conditions: SHP2, 25µM
T10 construct: purchased Eurofins PP260
Description: as §4

[6] = listed as Candesartan Cilexetil

T8 sequence (P17706 whole entry): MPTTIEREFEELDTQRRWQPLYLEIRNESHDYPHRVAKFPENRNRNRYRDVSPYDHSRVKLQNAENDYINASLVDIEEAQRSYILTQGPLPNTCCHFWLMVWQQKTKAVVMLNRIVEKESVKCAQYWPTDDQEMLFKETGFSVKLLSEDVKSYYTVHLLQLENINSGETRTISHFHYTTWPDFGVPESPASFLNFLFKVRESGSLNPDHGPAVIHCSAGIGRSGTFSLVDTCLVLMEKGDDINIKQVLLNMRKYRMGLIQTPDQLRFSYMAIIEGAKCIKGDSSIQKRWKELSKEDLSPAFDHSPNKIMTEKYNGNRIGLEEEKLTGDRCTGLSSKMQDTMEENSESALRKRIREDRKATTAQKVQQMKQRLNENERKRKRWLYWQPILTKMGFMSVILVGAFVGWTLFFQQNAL
T6 sequence (P29350 whole entry): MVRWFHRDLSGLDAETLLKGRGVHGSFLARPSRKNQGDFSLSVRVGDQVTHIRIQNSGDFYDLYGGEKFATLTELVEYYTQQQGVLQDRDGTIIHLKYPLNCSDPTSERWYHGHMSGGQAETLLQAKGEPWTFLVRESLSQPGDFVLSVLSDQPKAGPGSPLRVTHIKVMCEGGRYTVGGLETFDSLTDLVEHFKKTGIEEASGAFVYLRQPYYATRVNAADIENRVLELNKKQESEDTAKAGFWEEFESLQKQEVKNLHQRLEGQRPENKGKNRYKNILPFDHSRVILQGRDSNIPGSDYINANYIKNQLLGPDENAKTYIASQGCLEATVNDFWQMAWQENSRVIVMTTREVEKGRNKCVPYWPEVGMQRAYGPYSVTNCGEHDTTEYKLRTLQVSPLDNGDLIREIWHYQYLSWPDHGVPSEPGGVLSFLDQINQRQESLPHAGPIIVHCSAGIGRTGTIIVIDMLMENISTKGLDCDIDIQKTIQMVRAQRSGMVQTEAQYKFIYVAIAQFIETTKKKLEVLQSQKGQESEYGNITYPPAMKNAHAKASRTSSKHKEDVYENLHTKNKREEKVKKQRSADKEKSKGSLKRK
T3 sequence (P18031 whole entry): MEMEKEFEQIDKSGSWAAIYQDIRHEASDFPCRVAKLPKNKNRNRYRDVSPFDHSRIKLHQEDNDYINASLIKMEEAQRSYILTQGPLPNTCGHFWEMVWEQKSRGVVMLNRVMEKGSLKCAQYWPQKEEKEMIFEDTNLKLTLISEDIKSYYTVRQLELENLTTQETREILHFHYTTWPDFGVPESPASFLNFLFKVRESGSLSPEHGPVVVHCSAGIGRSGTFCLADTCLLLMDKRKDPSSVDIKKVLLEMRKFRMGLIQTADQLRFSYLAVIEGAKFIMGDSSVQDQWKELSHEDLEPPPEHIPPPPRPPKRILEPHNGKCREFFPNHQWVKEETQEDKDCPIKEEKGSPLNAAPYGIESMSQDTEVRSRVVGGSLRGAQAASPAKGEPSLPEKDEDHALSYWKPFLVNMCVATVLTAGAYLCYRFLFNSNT
T7 sequence (P51452 whole entry): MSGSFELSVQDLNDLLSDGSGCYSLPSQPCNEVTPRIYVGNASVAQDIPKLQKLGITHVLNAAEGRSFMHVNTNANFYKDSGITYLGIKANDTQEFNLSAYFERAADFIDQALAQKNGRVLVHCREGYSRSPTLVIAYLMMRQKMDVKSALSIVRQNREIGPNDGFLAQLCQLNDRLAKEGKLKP
T10 sequence (Q06124 whole entry): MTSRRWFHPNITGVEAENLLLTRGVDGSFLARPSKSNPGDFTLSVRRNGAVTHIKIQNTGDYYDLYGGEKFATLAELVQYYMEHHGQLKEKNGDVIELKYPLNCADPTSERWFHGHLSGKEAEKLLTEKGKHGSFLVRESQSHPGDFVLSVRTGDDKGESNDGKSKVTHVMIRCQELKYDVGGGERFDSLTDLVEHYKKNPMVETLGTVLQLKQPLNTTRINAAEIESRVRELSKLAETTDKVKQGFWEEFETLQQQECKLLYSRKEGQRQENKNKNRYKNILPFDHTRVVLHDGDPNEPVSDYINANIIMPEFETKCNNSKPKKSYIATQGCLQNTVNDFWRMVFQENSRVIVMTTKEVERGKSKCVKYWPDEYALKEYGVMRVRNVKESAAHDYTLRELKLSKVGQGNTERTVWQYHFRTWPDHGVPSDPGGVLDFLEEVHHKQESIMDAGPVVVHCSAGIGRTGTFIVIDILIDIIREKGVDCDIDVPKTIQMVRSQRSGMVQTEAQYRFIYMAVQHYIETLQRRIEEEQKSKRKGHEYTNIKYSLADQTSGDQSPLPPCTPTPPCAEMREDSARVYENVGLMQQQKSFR
T2 sequence (P62136 whole entry): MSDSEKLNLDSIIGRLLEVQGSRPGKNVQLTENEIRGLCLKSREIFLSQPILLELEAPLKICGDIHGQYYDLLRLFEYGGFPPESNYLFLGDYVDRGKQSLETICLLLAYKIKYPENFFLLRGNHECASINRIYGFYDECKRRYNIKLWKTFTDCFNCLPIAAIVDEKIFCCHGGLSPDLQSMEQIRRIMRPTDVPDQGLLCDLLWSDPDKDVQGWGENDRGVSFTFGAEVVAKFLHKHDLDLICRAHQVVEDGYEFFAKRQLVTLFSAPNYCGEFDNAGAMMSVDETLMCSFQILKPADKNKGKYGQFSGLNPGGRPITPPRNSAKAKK
T1 sequence (Q9Y6W6 whole entry): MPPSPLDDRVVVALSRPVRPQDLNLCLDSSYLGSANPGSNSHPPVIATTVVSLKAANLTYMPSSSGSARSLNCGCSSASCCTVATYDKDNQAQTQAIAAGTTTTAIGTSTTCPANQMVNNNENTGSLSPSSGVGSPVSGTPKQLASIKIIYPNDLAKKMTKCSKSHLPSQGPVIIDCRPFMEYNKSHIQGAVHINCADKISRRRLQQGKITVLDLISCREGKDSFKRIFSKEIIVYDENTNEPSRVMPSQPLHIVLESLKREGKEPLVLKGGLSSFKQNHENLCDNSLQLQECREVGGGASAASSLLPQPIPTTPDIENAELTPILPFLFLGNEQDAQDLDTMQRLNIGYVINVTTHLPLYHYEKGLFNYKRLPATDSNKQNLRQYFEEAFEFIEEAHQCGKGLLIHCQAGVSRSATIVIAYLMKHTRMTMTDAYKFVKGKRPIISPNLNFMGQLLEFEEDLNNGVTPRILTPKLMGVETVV
T9 sequence (P24666 whole entry): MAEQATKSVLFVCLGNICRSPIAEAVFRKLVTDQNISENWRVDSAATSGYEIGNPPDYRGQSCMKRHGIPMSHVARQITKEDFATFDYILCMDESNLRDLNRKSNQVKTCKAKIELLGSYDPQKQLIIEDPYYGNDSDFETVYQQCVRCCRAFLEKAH

CCOc1nc2cccc(C(=O)O)c2n1Cc1ccc(-c2ccccc2-c2nnn[nH]2)cc1 [Candesartan]
cellular migration in control cells (HEK293T cells [1]): no corresponding reduction in migration
cellular migration in PRL-3 overexpressing cells (HEK293T cells [1]): significant inhibition of cellular migration
migration of HCT116 cells with PRL-3 knock-down (PRL-3 shRNA) (HCT116 cells [2]): no additional impact on migration
inhibition of migration of HCT116 cells (HCT116 cells [2]; vs DMSO): > 30%
cell cycle (EdU staining) (HEK293T cells [3]): did not significantly impact
Percent Phosphatase Activity (compared to DMSO) (MKP5): 99%
Percent Phosphatase Activity (compared to DMSO) (PP1alpha): 105%
Percent Phosphatase Activity (compared to DMSO) (PTP1B): 109%
% Phosphatase Activity (compared to DMSO) PRL-1 (recombinant PRL-1): 106%
% Phosphatase Activity (compared to DMSO) PRL-1 (recombinant PRL-1; [6]): 6.33%
IC50 (recombinant PRL-1; […] protein): 69 ± 8 µM
% Phosphatase Activity (compared to DMSO) PRL-2 (recombinant PRL-2): 92%
% Phosphatase Activity (compared to DMSO) PRL-2 (recombinant PRL-2; [6]): 13%
IC50 (recombinant PRL-2; […] protein, DiFMUP at KM, read-out: Calculated IC50, PRL-2 phosphatase activity): 80 ± 15 µM
Percent Phosphatase Activity (compared to DMSO) (SHP1): 116%
Percent Phosphatase Activity (compared to DMSO) (VHR): 87%
Percent Phosphatase Activity (compared to DMSO) (TCPTP): 128%
Percent Phosphatase Activity (compared to DMSO) (ACP1 (LMPTP-A)): 97%
viability (MTT) (HEK293T cells [4]; 100 µM): viability dropped significantly
viability (MTT) (HEK293T cells [4]; up to 50 µM): insignificant effect on viability
phospho-ERK levels (phospho-ERK): decreased phospho-ERK levels
cell cycle (EdU staining) (HCT116 cells [5]): did not significantly impact
Percent Phosphatase Activity (compared to DMSO) (SHP2): 104%

CC(C)=CCC/C(C)=C/CC/C(C)=C/CSc1ccccc1C(=O)O [Salirasib]
cellular migration in control cells (HEK293T cells [1]): no corresponding reduction in migration
cellular migration in PRL-3 overexpressing cells (HEK293T cells [1]): significant inhibition of cellular migration
migration of HCT116 cells with PRL-3 knock-down (PRL-3 shRNA) (HCT116 cells [2]): significantly reduced migration
inhibition at 100 µM (HCT116 cells [2]; Homo sapiens, HCT-116, vs DMSO): > 30%
cell cycle (EdU staining) (HEK293T cells [3]): did not significantly impact
Percent Phosphatase Activity (compared to DMSO) (MKP5): 106%
Percent Phosphatase Activity (compared to DMSO) (PP1alpha): 104%
Percent Phosphatase Activity (compared to DMSO) (PTP1B): 114%
IC50 (recombinant PRL-1; 2.5 µM protein): 53 ± 5 µM
% Phosphatase Activity (compared to DMSO) PRL-1 (recombinant PRL-1): 26%
% Phosphatase Activity (compared to DMSO) PRL-2 (recombinant PRL-2): 6%
Percent Phosphatase Activity (compared to DMSO) (SHP1): 113%
Percent Phosphatase Activity (compared to DMSO) (VHR): 97%
Percent Phosphatase Activity (compared to DMSO) (TCPTP): 118%
Percent Phosphatase Activity (compared to DMSO) (ACP1 (LMPTP-A)): 96%
viability (MTT) (HEK293T cells [4]; drug doses 1 to 100 µM, normalized to 1% DMSO): no effect on the viability
phospho-ERK levels (phospho-ERK): decreased phospho-ERK levels
cell cycle (EdU staining) (HCT116 cells [5]): did not significantly impact
Percent Phosphatase Activity (compared to DMSO) (SHP2): 103%
